# Assay results published in the supplement of paper PMC10307832.
# Tests used:
# Test in all cases: relative viability (nuclei count vs DMSO), 5 days (fraction); higher = more cells survive
# Tivantinib + Pictilisib = compound: O=C1NC(=O)[C@@H](c2cn3c4c(cccc24)CCC3)[C@@H]1c1c[nH]c2ccccc12 [Tivantinib] + CS(=O)(=O)N1CCN(Cc2cc3nc(-c4cccc5[nH]ncc45)nc(N4CCOCC4)c3s2)CC1 [Pictilisib] (partner 1 µM)
# Outline: (§1)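 Dosing by pin tool came one day after lung cancer cell lines were seeded in 1536-well plates, using either one drug or a fixed anchor-drug dose plus five library-drug doses (not always all listed) in √10 steps. After 5 days, nuclei were counted on 4× images. Relative viability is treated-well nuclei count divided by vehicle-well nuclei count, and values are medians of duplicate plates.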
# Tivantinib + Olaparib = compound: O=C1NC(=O)[C@@H](c2cn3c4c(cccc24)CCC3)[C@@H]1c1c[nH]c2ccccc12 [Tivantinib] + O=C(c1cc(Cc2n[nH]c(=O)c3ccccc23)ccc1F)N1CCN(C(=O)C2CC2)CC1 [Olaparib] (partner 8 µM)
# Outline: as §1
# Crenolanib + Trametinib = compound: CC1(COc2ccc3c(c2)ncn3-c2ccc3cccc(N4CCC(N)CC4)c3n2)COC1 [Crenolanib] + CC(=O)Nc1cccc(-n2c(=O)n(C3CC3)c(=O)c3c(Nc4ccc(I)cc4F)n(C)c(=O)c(C)c32)c1 [Trametinib] (partner 0.02 µM)
# Outline: as §1
# Crenolanib + Luminespib = compound: CC1(COc2ccc3c(c2)ncn3-c2ccc3cccc(N4CCC(N)CC4)c3n2)COC1 [Crenolanib] + CCNC(=O)c1noc(-c2cc(C(C)C)c(O)cc2O)c1-c1ccc(CN2CCOCC2)cc1 [Luminespib] (partner 0.01 µM)
# Outline: as §1
Cell Line,relative viability (Tivantinib + Pictilisib; first compound 0.01 µM),relative viability (Tivantinib + Pictilisib; first compound 0.03162 µM),relative viability (Tivantinib + Pictilisib; first compound 0.1 µM),relative viability (Tivantinib + Pictilisib; first compound 0.3162 µM),relative viability (Tivantinib + Olaparib; first compound 0.01 µM),relative viability (Tivantinib + Olaparib; first compound 0.03162 µM),relative viability (Tivantinib + Olaparib; first compound 0.1 µM),relative viability (Tivantinib + Olaparib; first compound 0.3162 µM),relative viability (Crenolanib + Trametinib; first compound 0.01 µM),relative viability (Crenolanib + Trametinib; first compound 0.03162 µM),relative viability (Crenolanib + Trametinib; first compound 0.1 µM),relative viability (Crenolanib + Trametinib; first compound 0.3162 µM),relative viability (Crenolanib + Trametinib; first compound 1 µM),relative viability (Crenolanib + Luminespib; first compound 0.01 µM),relative viability (Crenolanib + Luminespib; first compound 0.03162 µM),relative viability (Crenolanib + Luminespib; first compound 0.1 µM),relative viability (Crenolanib + Luminespib; first compound 0.3162 µM),relative viability (Crenolanib + Luminespib; first compound 1 µM)
201T,0.713,0.569,0.673,0.694,0.837,0.794,0.817,0.831,0.703,0.703,0.688,0.722,0.745,1.03,1.13,1.01,1.09,1.02
A549,0.495,0.518,0.468,0.449,0.204,0.253,0.301,0.214,,,,,,,,,,
A-427,0.663,0.702,0.677,0.749,0.761,0.794,0.723,0.685,0.831,,0.755,0.818,0.747,0.84,0.828,0.916,1.01,0.816
ABC-1,0.802,0.51,0.681,0.731,0.875,1.17,0.626,0.955,,,,,,,0.655,0.666,0.47,0.611
BEN,0.703,0.41,0.501,0.432,1.05,1.01,0.961,0.857,1.14,1.06,1.09,0.998,1.15,0.644,0.257,0.425,0.528,0.32
CAL-12T,0.393,0.377,0.377,0.265,0.731,0.643,0.677,0.613,0.466,0.345,0.372,0.347,0.294,0.338,0.398,0.272,0.363,0.579
COR-L23,0.809,0.63,0.762,0.98,0.339,0.417,0.328,0.326,0.58,0.53,0.418,0.606,0.552,0.709,0.679,0.63,0.848,0.574
COR-L 105,0.401,0.335,0.389,0.406,0.739,0.665,0.729,0.585,0.442,0.407,0.491,0.416,0.547,1.12,0.973,0.743,0.859,0.732
Calu-6,0.917,0.931,0.901,0.889,0.611,0.572,,0.564,,,,,,,,,,
ChaGo-K-1,0.851,0.608,0.757,0.646,0.401,0.41,0.409,0.398,0.877,0.895,0.868,0.916,0.846,0.595,0.612,0.655,0.655,0.68
EBC-1,0.492,0.444,0.471,0.345,0.708,0.681,0.781,0.711,,,,,,,,,,
EKVX,0.449,0.381,0.417,0.163,0.812,0.893,0.834,0.296,0.365,0.405,0.348,0.332,0.413,0.915,0.952,0.909,1.03,0.93
EMC-BAC-2,0.562,0.511,0.567,0.527,0.45,0.477,0.485,0.582,0.905,,0.893,0.937,0.799,1.31,1.17,1.17,1.45,1.18
EPLC-272H,0.346,0.3,0.357,0.278,0.97,0.698,0.657,0.257,0.307,0.299,0.283,0.326,0.277,0.371,0.574,0.366,0.168,0.319
H3255,0.466,0.494,0.485,,0.599,0.588,0.57,,0.646,0.612,0.639,0.754,0.627,0.963,1.06,0.986,0.917,0.854
HARA,0.389,0.237,0.474,0.253,1.02,0.49,0.735,0.732,0.795,0.955,0.774,0.723,0.628,0.643,0.734,0.626,0.875,0.828
HCC-15,0.705,0.671,0.674,0.799,0.725,0.756,0.643,0.917,0.4,0.394,0.379,0.402,0.38,0.276,0.408,0.355,0.315,0.302
HCC-44,0.69,0.523,0.886,0.728,0.961,0.963,1.01,0.941,1.05,1.1,1.03,1.11,0.945,1.26,0.98,1.05,0.771,0.784
HCC-78,0.241,0.177,0.204,0.196,0.99,0.767,0.709,0.62,0.826,0.862,0.682,0.756,0.657,,,,,
HCC-366,0.157,0.147,0.119,0.141,0.278,0.35,0.308,0.346,0.367,0.374,0.3,0.422,0.345,,,,,
HCC-827,1.15,1.01,0.983,0.415,0.661,0.681,0.673,,0.595,0.529,0.505,0.473,0.6,0.7,0.607,0.617,0.568,0.6
HOP-62,0.708,,0.864,0.792,0.463,0.451,0.329,0.477,0.43,0.372,0.368,0.379,0.37,0.944,0.89,0.859,0.93,0.813

Cell Line,relative viability (Tivantinib + Pictilisib; first compound 0.01 µM),relative viability (Tivantinib + Pictilisib; first compound 0.03162 µM),relative viability (Tivantinib + Pictilisib; first compound 0.1 µM),relative viability (Tivantinib + Pictilisib; first compound 0.3162 µM),relative viability (Tivantinib + Olaparib; first compound 0.01 µM),relative viability (Tivantinib + Olaparib; first compound 0.03162 µM),relative viability (Tivantinib + Olaparib; first compound 0.1 µM),relative viability (Tivantinib + Olaparib; first compound 0.3162 µM),relative viability (Crenolanib + Trametinib; first compound 0.01 µM),relative viability (Crenolanib + Trametinib; first compound 0.03162 µM),relative viability (Crenolanib + Trametinib; first compound 0.1 µM),relative viability (Crenolanib + Trametinib; first compound 0.3162 µM),relative viability (Crenolanib + Trametinib; first compound 1 µM),relative viability (Crenolanib + Luminespib; first compound 0.01 µM),relative viability (Crenolanib + Luminespib; first compound 0.03162 µM),relative viability (Crenolanib + Luminespib; first compound 0.1 µM),relative viability (Crenolanib + Luminespib; first compound 0.3162 µM),relative viability (Crenolanib + Luminespib; first compound 1 µM)
IA-LM,0.401,0.334,0.343,0.218,0.907,,0.789,0.809,,,,,,,,,,
LC-2-ad,0.462,0.354,0.479,0.511,0.684,0.685,0.692,0.706,1.05,0.901,0.916,0.97,0.894,1.07,0.929,0.955,0.963,0.756
LCLC-97TM1,0.199,0.14,0.234,0.181,0.39,0.414,0.455,0.407,0.215,0.176,0.186,0.188,0.199,0.777,0.749,0.792,0.844,0.753
LCLC-103H,0.684,0.517,0.704,0.63,0.713,0.802,0.722,0.778,0.686,0.643,0.651,0.692,0.667,1.02,0.922,0.878,1.06,0.863
LK-2,0.685,,0.567,0.496,0.903,0.639,0.73,0.687,0.987,0.747,0.859,0.899,0.727,0.169,0.18,0.16,0.17,0.199
LOU-NH91,0.517,0.485,0.521,0.519,0.861,0.888,0.9,0.715,0.826,0.793,0.774,0.879,0.788,0.326,0.304,0.33,0.303,0.317
LU99A,0.288,0.308,0.292,0.287,0.272,0.267,0.251,0.254,0.527,0.499,0.514,0.618,0.541,0.253,0.217,0.219,0.287,0.207
LXF-289,0.815,0.769,0.703,0.817,1.02,1.05,1.01,1.02,0.665,0.638,0.689,0.7,0.718,0.657,0.772,0.617,0.722,0.711
NCI-H23,0.43,0.324,0.533,0.382,0.357,0.335,0.387,0.348,0.441,0.412,0.425,0.387,0.408,0.235,0.279,0.226,0.216,0.174
NCI-H322M,0.505,0.481,0.467,0.4,0.718,0.754,0.777,,0.515,0.516,0.488,0.525,0.609,0.949,0.88,0.752,0.769,0.802
NCI-H358,0.406,0.284,0.418,0.294,0.633,0.63,0.505,0.379,0.169,0.11,0.166,0.133,0.112,1.3,0.307,0.232,0.343,0.337
NCI-H441,0.499,0.451,0.601,0.242,0.482,0.552,0.58,0.744,0.537,0.479,0.425,0.485,0.408,0.387,0.393,0.333,0.433,0.359
NCI-H460,0.331,0.274,0.335,0.33,0.412,0.429,0.399,0.39,0.13,0.169,0.151,0.17,0.133,0.0489,0.039,0.0453,0.0313,0.0348
NCI-H522,,,,,0.639,0.579,0.698,0.517,0.766,0.615,0.841,0.631,0.638,1.01,0.993,1.15,1.17,1.21
NCI-H1299,0.9,0.857,0.695,0.807,0.941,0.933,1.01,0.93,,,,,,,,,,
NCI-H1563,0.608,0.6,0.651,0.674,,,,,,,,,,0.552,0.499,0.531,0.517,0.478
NCI-H1623,,,,,,,,,,,,,,0.582,0.41,0.457,0.633,0.357
NCI-H1648,,,,,,0.889,0.611,0.528,0.541,,0.469,0.457,0.514,,,,,
NCI-H1703,0.215,0.24,0.236,0.228,0.524,0.444,0.527,0.309,,,,,,,,,,
NCI-H2342,,,,,0.513,0.423,0.392,0.282,0.502,0.822,0.935,0.887,0.904,0.822,0.701,0.779,0.77,0.807
SW 900,,,,,0.939,1.03,0.809,0.742,0.797,,0.75,0.784,1.18,0.167,0.177,0.172,0.218,0.196
